Test results published in PubChem BioAssay AID686920 (Broad Institute, 2013).

What follows are compounds tested on A673 NR0B1-luciferase reporter, viability-normalised luminescence (assay: suppressors of NR0B1-promoter luciferase reporter, dose response, EWS/Fli inhibitor project, luciferase luminescence, A673 cells, cherry-pick (AID 686920)).

Structure (SMILES)	AC35
C[C@H](CO)N1C[C@H](C)[C@@H](CN(C)Cc2ccc(C(F)(F)F)cc2)OCCCC[C@H](C)Oc2ccc(NS(=O)(=O)c3ccc(F)cc3)cc2C1=O	16.6 µM
C[C@H]1CN([C@@H](C)CO)S(=O)(=O)c2ccc(C#Cc3ccncc3)cc2O[C@@H]1CN(C)C(=O)Nc1ccc2c(c1)OCO2	10.1 µM
C[C@@H]1CN([C@@H](C)CO)S(=O)(=O)c2ccc(C#Cc3ccncc3)cc2O[C@H]1CN(C)C(=O)C1CCOCC1	49.8 µM
O=C(NCc1cccnc1)C1Cc2c(-c3ccc(Cl)cc3)ccnc2O1 (stereo not drawn)	6.04 µM
COc1ccccc1/C=C1\SC(=S)N(CCC(=O)Nc2cc(C)on2)C1=O	16.8 µM
O=C(NC(=O)c1ccccc1)Nc1ccccc1	12.8 µM
Nc1cc2c(cc1Br)[nH]c(=O)c1ccccc12	43.3 µM
CCOC(=O)[C@]12Cc3ccc(C)cc3[C@H]1N(C1CCCCC1)C(=O)c1ccccc12	5.49 µM
O=C(Nc1ccccc1F)N1CCCCN2[C@H](CO)[C@H](c3ccc(/C=C/c4ccccc4)cc3)[C@H]2C1	14 µM
Nc1ccc(Oc2ccccc2-c2ccccc2)cc1	2.49 µM
Cc1cc(C)cc(N2C(=O)NC(=O)/C(=C\C=C\c3ccco3)C2=O)c1	4.31 µM
C[C@@H]1CN([C@H](C)CO)C(=O)c2cc(NC(=O)Nc3ccccc3)ccc2O[C@@H]1CN(C)Cc1ccc(C(=O)Nc2ccccc2N)cc1	8.74 µM
C=CC[n+]1c(-c2ccc(C)cc2)csc1Nc1ccc(NC(C)=O)cc1	15.6 µM
CN1c2ccc(-c3ccc(C#N)cc3)cc2[C@H]2[C@H](CCN2S(=O)(=O)c2cccc(F)c2)[C@H]1CO	1.74 µM
Nc1ccc(-c2cc3ccccc3oc2=O)cc1	0.208 µM
CC(C)c1oc(=O)cc2c1[C@@H](O)[C@H]1OC(=O)[C@@]3(C)CC[C@@H](O)[C@@]2(C)C13 (stereo partly drawn)	4.21 µM
CN(Cc1cnc2nc(N)nc(N)c2n1)c1ccc(C(=O)N[C@@H](CCC(=O)O)C(=O)O)cc1	< 0.03 µM
O=C1C(=O)N(Cc2cccs2)c2ccccc21	17 µM
COc1cc(/C=C/C(=O)CC(=O)/C=C/c2ccc(O)c(OC)c2)ccc1O	7.91 µM
COc1ccc(/C=N/Nc2ccc(C(=O)O)cc2)cc1Br	3.93 µM
COc1ccc(S(=O)(=O)Nc2ccc3c(c2)C(=O)N([C@H](C)CO)C[C@@H](C)[C@@H](CN(C)Cc2ccc(C(=O)Nc4ccccc4N)cc2)O3)cc1	5.11 µM

Structure (SMILES)	AC35
CCCn1c(C)cc(C(=O)CN2C(=O)c3ccccc3S2(=O)=O)c1C	1.25 µM
O=C1Nc2ccccc2C1=Nc1ccc(Br)cc1	15.6 µM
C=C1C(=O)[C@@]23[C@H](O)C[C@@H]4C(C)(C)CC[C@H](O)[C@@]4(C)[C@@H]2CC[C@@H]1[C@H]3O	9.06 µM
C[C@@H]1CN([C@@H](C)CO)C(=O)c2cccc(NS(=O)(=O)c3ccc(Cl)cc3)c2O[C@@H]1CN(C)Cc1ccc(C(=O)Nc2ccccc2N)cc1	5.31 µM
C[C@H]1CN([C@@H](C)CO)C(=O)c2cc(NS(=O)(=O)c3ccc(Cl)cc3)ccc2O[C@H]1CN(C)Cc1ccc(C(=O)Nc2ccccc2N)cc1	14.5 µM
Cc1ccc(S(=O)(=O)Nc2ccc3c(c2)C(=O)N([C@@H](C)CO)C[C@@H](C)[C@@H](CN(C)Cc2ccc(C(=O)Nc4ccccc4N)cc2)O3)cc1	6.44 µM
COc1cc(/C=N/NS(=O)(=O)c2ccc(C)cc2)ccc1OCc1cccc(C(=O)O)c1	4.09 µM
CC1(C(=O)NCc2ccco2)Cc2c(-c3cccc(C(N)=O)c3)ccnc2O1 (stereo not drawn)	5.37 µM
C[C@@H]1CN([C@H](C)CO)C(=O)c2cc(NC(=O)CCCCCC(=O)Nc3ccccc3N)ccc2O[C@@H]1CN(C)Cc1ccc(Cl)c(Cl)c1	5.24 µM
CCOC(=O)Cc1ccc(NC(=O)c2ccccc2Br)cc1	4.18 µM
COc1ccc(C2=Nn3c(nnc3-c3ccccc3F)SC2)cc1OC1CCOC1 (stereo not drawn)	4.37 µM
COc1cccc(Sc2ccccc2/C=N/NC(N)=O)c1	2.17 µM
COc1ccc2cc(C(N)=O)/c(=N\NC(=O)c3ccccc3)oc2c1	5.91 µM
COC(=O)C[C@@H]1CC[C@@H]2[C@H](COc3ccc(NC(=O)c4cc(C)on4)cc3C(=O)N2C)O1	7 µM
COc1ccc(S(=O)(=O)N2CCCc3nc(-c4ccc(F)cc4)ccc32)cc1	4.87 µM
C[C@]12CC[C@H](O)C[C@H]1CC[C@@H]1[C@@H]2CC[C@]2(C)[C@@H](C3=CC(=O)OC3)CC[C@]12O	0.395 µM
O=c1[nH]c(=O)n(C2C[C@H](O)[C@@H](CO)O2)cc1C(F)(F)F (stereo partly drawn)	4.01 µM
Cc1ccc(S(=O)(=O)N(C)C[C@@H]2Oc3cc(C#Cc4ccncc4)ccc3S(=O)(=O)N([C@@H](C)CO)C[C@H]2C)cc1	9.88 µM
c1ccc(Nc2nnc(-c3ccc4c(c3)OCO4)o2)cc1	3.06 µM
CO[C@H]1CN(C)C(=O)c2ccc(NC(=O)c3ccc(-c4ccccc4)cc3)cc2OC[C@H](C)NC[C@H]1C	15 µM
Nc1nc(N)c2cc(Sc3ccc4ccccc4c3)ccc2n1	2.1 µM

Structure (SMILES)	AC35
CC1=NN(c2ccc(C)cc2)C(=O)/C1=C\C=C\c1ccccc1	10.2 µM
Cc1ccccc1S(=O)(=O)N1CC[C@@H]2[C@@H](CO)Nc3ccc(-c4ccc(C#N)cc4)cc3[C@@H]21	5.42 µM
O=C(O)c1ccc(N/N=C/c2ccc3nccnc3c2)cc1	0.993 µM
COC(=O)Cc1[nH]n(-c2nc3ccccc3s2)c(=O)c1C(C)=Nc1ccc(C)cc1	0.17 µM
O=C1Nc2ccccc2C1=Nc1ccccc1-c1ccccc1	11.4 µM
COc1ccc(CC(N)c2csc(NC(=O)Nc3cccc(C(F)(F)F)c3)n2)cc1 (stereo not drawn)	9.72 µM
C[C@@H]1O[C@@H](O[C@H]2C[C@@H](O)[C@]3(CO)[C@H]4[C@H](O)C[C@]5(C)[C@@H](C6COC(=O)C6)CC[C@]5(O)[C@@H]4CC[C@]3(O)C2)[C@H](O)[C@H](O)[C@H]1O (stereo partly drawn)	1.24 µM
C=CCn1c(O)c(N=Nc2ccccc2)c2ccccc21	38.9 µM
CCc1ccc(/C=C2\SC(=S)N(CCCC(=O)NC3=NCCS3)C2=O)cc1	0.588 µM
C[C@@H]1CN([C@@H](C)CO)S(=O)(=O)c2ccc(C#CCN(C)C)cc2O[C@@H]1CN(C)Cc1ccncc1	60.2 µM
CC(C)(C)c1ccc(Oc2ccc(NC(=O)C3CC=CCC3C(=O)O)cc2)cc1 (stereo not drawn)	40.5 µM
Cc1ccc(S(=O)(=O)N(C)C[C@@H]2Oc3ccc(NC(=O)CCCCCC(=O)Nc4ccccc4N)cc3CC(=O)N([C@@H](C)CO)C[C@@H]2C)cc1	11 µM
CN(C)c1ncnc2c1ccn2C1OC(CO)C(O)C1O (stereo not drawn)	3.44 µM
O=c1[nH]c(=O)n([C@H]2C[C@H](O)[C@@H](CO)O2)cc1C(F)(F)F	3.33 µM
C#CCOCCOCCOCCNc1nc(N2CCN(C(=O)CCCCCCCCCCNC(=O)Cn3cc(C[C@@H](C)O)nn3)CC2)nc(N2CCN(C(=O)CCCCCCCCCCNC(=O)[C@H](CO)n3cc(CCCSC)nn3)CC2)n1	9.81 µM
CC12CCC3C(CCC4(O)CC(O)CCC34C=NO)C1(O)CCC2C1=COC(=O)C1 (stereo not drawn)	0.293 µM
Cc1ccc2c(c1)C(=O)N1[C@H]3c4cc(Br)ccc4OC[C@@H]3[C@H](c3ccccc3)[C@]1(C)C(=O)N2	13.7 µM
C[C@@H]1CN([C@H](C)CO)S(=O)(=O)c2ccc(C#CC3CC3)cc2O[C@@H]1CN(C)Cc1ccccc1F	30.4 µM
COc1ccc(C(=O)Nc2cccc(C(=O)N/N=C/c3ccc(OC)cc3OC)c2)cc1	31.2 µM
COC(=O)C1=C(C)N(Cc2ccccc2C(F)(F)F)C(=NCc2ccc(OC)cc2)NC1c1ccc(C(F)(F)F)cc1 (stereo not drawn)	29.9 µM
C[C@@H]1CCCCO[C@H](CN(C)Cc2ccc(C(=O)Nc3ccccc3N)cc2)[C@@H](C)CN([C@H](C)CO)C(=O)c2cc(NS(=O)(=O)c3ccc(Cl)cc3)ccc2O1	5.04 µM
